# Measurements taken from patent US20030139578A1, “Antibodies specifically binding PDE8A and PDE8B” (Incyte Genomics, Inc., priority 1996, published 2003).
# Molecular target: T1, PDE8A(E) (Homo sapiens, UniProt O60658)
# T1 construct: A 1.6 kb region of PDE8A(E) (the C-terminal 545 amino acids) was amplified and cloned into the baculovirus transfer vector pFASTBAC; made in house; host or cells: Sf9 insect cells (baculovirus, pFASTBAC)
# Test: PDE activity assay, conversion of 3H-cAMP to 3H-adenosine by recombinant PDE8A(E)
# Type: biochemical
# Details: for inhibition of PDE8A(E) activity: 1% DMSO, 50 nM cAMP, FIG. 8
# Description: Recombinant virus stocks were prepared according to the manufacturer's protocol. Sf9 cells were cultured in Sf900 II Sfm serum free media (Invitrogen) at 27 C. For expression, 1×10^8 Sf9 cells were infected at a multiplicity of infection of 5 in a final volume of 50 mls. At three days post-infection, the cells were harvested, and enzyme-containing lysates were prepared as described below.
# PDE8A(E) to be used for assay was prepared from transfected Sf9 cells. Cells were harvested by centrifugation, resuspended in homogenization buffer (20 mM Tris-HCl, 2 mM benzamidine, 1 mM EDTA, 0.25 M sucrose, 100 uM PMSF, pH 7.5) at 1×10^7 cells/ml, and disrupted with 3×10 second pulses using a Sonifier Processor (Emerson Branson, Korea). Cellular debris was removed by centrifugation at 14,000×g for 10 minutes. The supernatant was stored at −70° C.
# PDE activity was assayed by measuring the conversion of ^3H-cAMP to ^3H-adenosine in the presence of PDE8A(E) and 5′ nucleotidase. […] The reaction was started by the addition of 25 ul of diluted enzyme supernatant. Reactions were run directly in mini Poly-Q scintillation vials (BeckmanCoulter, Fullerton Calif.). […] The reaction was stopped by the addition of 1 ml of Dowex AG1×8 (C1 form) resin (1:3 slurry). Three ml of scintillation fluid were added, the contents of the vials were mixed, and the resin in the vials was allowed to settle for 1 hr before counting. Soluble radioactivity associated with ^3H-adenosine was quantitated using a Beta scintillation counter. The amount of radioactivity recovered is proportional to the activity of PDE8 in the reaction. For inhibitor studies (FIG. 8), all reactions contained 1% DMSO, 50 nM cAMP, and the indicated inhibitor concentrations. The control vial contained all reagents minus the enzyme aliquot.
# T1 sequence (O60658 285-829 limits assumed): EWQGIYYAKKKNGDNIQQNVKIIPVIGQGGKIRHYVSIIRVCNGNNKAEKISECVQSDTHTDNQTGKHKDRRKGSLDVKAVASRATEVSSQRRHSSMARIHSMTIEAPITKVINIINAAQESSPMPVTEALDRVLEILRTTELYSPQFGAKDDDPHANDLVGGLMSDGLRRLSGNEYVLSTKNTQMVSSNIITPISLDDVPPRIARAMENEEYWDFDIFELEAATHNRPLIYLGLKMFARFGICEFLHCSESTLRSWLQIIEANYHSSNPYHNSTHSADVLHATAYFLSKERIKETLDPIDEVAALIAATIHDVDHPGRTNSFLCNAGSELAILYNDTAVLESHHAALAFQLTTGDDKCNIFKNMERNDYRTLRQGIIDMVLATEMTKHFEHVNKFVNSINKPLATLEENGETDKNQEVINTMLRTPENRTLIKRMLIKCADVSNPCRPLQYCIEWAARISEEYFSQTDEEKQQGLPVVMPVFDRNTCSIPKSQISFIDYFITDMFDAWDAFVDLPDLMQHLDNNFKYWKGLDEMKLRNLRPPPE
SMILES,inhibition of PDE8A(E) activity,IC50
CC(C)Cn1c(=O)n(C)c(=O)c2[nH]cnc21 [IBMX],not inhibited,–
CC(=O)Nc1ccc(-c2c[nH]c(=O)cn2)cc1 [SKF94120],not inhibited,–
OCCN(CCO)c1nc(N2CCCCC2)c2nc(N(CCO)CCO)nc(N3CCCCC3)c2n1 [dipyridamole],–,9 µM
COc1ccc(C2CNC(=O)C2)cc1OC1CCCC1 (stereo not drawn) [rolipram],not inhibited,–

# Further lines, with some results ahead:
inhibition of PDE8A(E) activity,SMILES,IC50
not inhibited,CCOC(=O)C1=C[C@]2(CC)CCCN3CCc4c(n1c1ccccc41)[C@@H]32 [vinpocetine],–
not inhibited,CCCOc1ccccc1-c1nc2nn[nH]c2c(=O)[nH]1 [zaprinast],–
